In brackets after ≈: the same amount, converted by molar mass.

A short description of data set [1]: Water Solubility Assay (measured in pH 7.8 buffer). It is filed as physicochemical. The conditions noted are these: 25 °C, pH 7.8, aqueous buffer, kinetic from dmso stock.
The target in data set [2] is calcineurin/cyclophilin A (Homo sapiens (Human), UniProt P62937+P63098+Q08209). Briefly: Calcineurin Phosphatase (CaN) Assay (+CypA). In kind it is biochemical. The conditions noted are these: in the presence of Cyp A, 1:1 complex with inhibitor; read-out: Calcineurin Phosphatase (CaN) Assay (+CypA) IC50.
For data set [3], the target named is Human recombinant cyclophilin A (Cyp A) (Homo sapiens (Human), UniProt P62937). Briefly: Protease-free PPIase assay.

Turning to `CC[C@H]1NC(=O)[C@@H]([C@H](O)[C@H](C)CCCc2ccccn2)N(C)C(=O)[C@@H](C(C)C)N(C)C(=O)[C@@H](CC(C)C)N(C)C(=O)[C@@H](CC(C)C)N(C)C(=O)[C@H](C)NC(=O)[C@@H](C)NC(=O)[C@@H](CC(C)C)N(C)C(=O)[C@@H](C(C)C)NC(=O)[C@H](CC(C)C)N(C)C(=O)[C@@H](C)N(C)C1=O` [Compound 12, [(2S,3R,4R)-3-Hydroxy-4-methyl-2-(methylamino)-7-(pyridin-2-yl)-heptanoic acid]^1 [(R)-methyl-Sar]^3 cyclosporin A], the solubility at 18 h in data set [1] was in the range of 50 to 75 µM (≈ 64.1 to 96.1 µg/mL). Besides, in data set [2], the IC50 is 1400 nM. The Ki in data set [3] was 3.8 nM.
The molecule `CC[C@H]1NC(=O)[C@@H]([C@H](O)[C@H](C)CCCc2ccnn2C)N(C)C(=O)[C@@H](C(C)C)N(C)C(=O)[C@@H](CC(C)C)N(C)C(=O)[C@@H](CC(C)C)N(C)C(=O)[C@H](C)NC(=O)[C@@H](C)NC(=O)[C@@H](CC(C)C)N(C)C(=O)[C@@H](C(C)C)NC(=O)[C@H](CC(C)C)N(C)C(=O)[C@@H](C)N(C)C1=O` [Compound 23, [(2S,3R,4R)-3-Hydroxy-4-methyl-2-(methylamino)-7-(2-methylpyrazol-3-yl)-heptanoic acid]^1 [(R)-methyl-Sar]^3 cyclosporin A] gave a solubility at 18 h in data set [1] of more than 100 µM. The IC50 in data set [2] is 3340 nM. The Ki in data set [3] is 2.1 nM.
The matching figures for `CC[C@H]1NC(=O)[C@@H]([C@H](O)[C@H](C)CCCc2ccncc2)N(C)C(=O)[C@@H](C(C)C)N(C)C(=O)[C@@H](CC(C)C)N(C)C(=O)[C@@H](CC(C)C)N(C)C(=O)[C@H](C)NC(=O)[C@@H](C)NC(=O)[C@@H](CC(C)C)N(C)C(=O)[C@@H](C(C)C)NC(=O)[C@H](CC(C)C)N(C)C(=O)CN(C)C1=O` [Compound 30, [(2S,3R,4R)-3-Hydroxy-4-methyl-2-(methylamino)-7-(pyridin-4-yl)-heptanoic acid]^1 cyclosporin A]: 50 to 75 µM (≈ 63.4 to 95.1 µg/mL), 3150 nM and 14 nM.
As to `CC[C@H]1NC(=O)[C@@H]([C@H](O)[C@H](C)CCCc2cccnc2)N(C)C(=O)[C@@H](C(C)C)N(C)C(=O)[C@@H](CC(C)C)N(C)C(=O)[C@@H](CC(C)C)N(C)C(=O)[C@H](C)NC(=O)[C@@H](C)NC(=O)[C@@H](CC(C)C)N(C)C(=O)[C@@H](C(C)C)NC(=O)[C@H](CC(C)C)N(C)C(=O)[C@@H](C)N(C)C1=O` [Compound 11, [(2S,3R,4S)-3-Hydroxy-4-methyl-2-(methylamino)-7-(pyridin-3-yl)-heptanoic acid]^1 [(R)-methyl-Sar]^3 cyclosporin A], in data set [1], the solubility at 18 h was in the range of 50 to 75 µM (≈ 64.1 to 96.1 µg/mL). For the same molecule, the IC50 in data set [2] turned out to be 2500 nM. Further, the Ki in data set [3] amounted to 5.6 nM.
`CC[C@H]1NC(=O)[C@@H]([C@H](O)[C@H](C)CCCc2nccn2C)N(C)C(=O)[C@@H](C(C)C)N(C)C(=O)[C@@H](CC(C)C)N(C)C(=O)[C@@H](CC(C)C)N(C)C(=O)[C@H](C)NC(=O)[C@@H](C)NC(=O)[C@@H](CC(C)C)N(C)C(=O)[C@@H](C(C)C)NC(=O)[C@H](CC(C)C)N(C)C(=O)[C@@H](C)N(C)C1=O` [Compound 26, [(2S,3R,4R)-3-Hydroxy-7-(1-methyl-1H-imidazol-2-yl)-4-methyl-2-(methylamino)heptanoic acid]^1 [(R)-methyl-Sar]^3 cyclosporin A] showed a solubility at 18 h in data set [1] of more than 100 µM. Further, the IC50 in data set [2] is more than 10000 nM. Further, the Ki in data set [3] came to 12.2 nM.
As to `CC[C@H]1NC(=O)[C@@H]([C@H](O)[C@H](C)CCCc2ccccn2)N(C)C(=O)[C@@H](C(C)C)N(C)C(=O)[C@@H](CC(C)C)N(C)C(=O)[C@@H](CC(C)C)N(C)C(=O)[C@H](C)NC(=O)[C@@H](C)NC(=O)[C@@H](CC(C)C)N(C)C(=O)[C@@H](C(C)C)NC(=O)[C@H](CC(C)C)N(C)C(=O)[C@@H](CO)N(C)C1=O` [Compound 34], the solubility at 18 h in data set [1] was more than 100 µM. For the same molecule, the IC50 in data set [2] is 4650 nM. In addition, the inhibition constant (Ki) in data set [3] was found to be 3.1 nM.
Regarding `CC[C@H]1NC(=O)[C@@H]([C@H](O)[C@H](C)CCCc2ccnc(C)c2)N(C)C(=O)[C@@H](C(C)C)N(C)C(=O)[C@@H](CC(C)C)N(C)C(=O)[C@@H](CC(C)C)N(C)C(=O)[C@H](C)NC(=O)[C@@H](C)NC(=O)[C@@H](CC(C)C)N(C)C(=O)[C@@H](C(C)C)NC(=O)[C@H](CC(C)C)N(C)C(=O)[C@@H](C)N(C)C1=O` [Compound 17, [(2S,3R,4R)-3-Hydroxy-4-methyl-2-(methylamino)-7-(2-methyl-pyridin-4-yl)-heptanoic acid]^1 [(R)-methyl-Sar]^3 cyclosporin A], the solubility at 18 h in data set [1] lay within 25 to 50 µM (≈ 32.4 to 64.8 µg/mL). In addition, in data set [2], the IC50 was 9250 nM. Also, the Ki in data set [3] is 3.9 nM.
Turning to `CC[C@H]1NC(=O)[C@@H]([C@H](O)[C@H](C)Cc2nccn2CCCO)N(C)C(=O)[C@@H](C(C)C)N(C)C(=O)[C@@H](CC(C)C)N(C)C(=O)[C@@H](CC(C)C)N(C)C(=O)[C@H](C)NC(=O)[C@@H](C)NC(=O)[C@@H](CC(C)C)N(C)C(=O)[C@@H](C(C)C)NC(=O)[C@H](CC(C)C)N(C)C(=O)[C@@H](C)N(C)C1=O` [Compound 6, [(2S,3R,4R)-3-Hydroxy-5-(1-(3-hydroxypropyl)-1H-imidazol-2-yl)-4-methyl-2-(methylamino)pentanoic acid]^1 [(R)-methyl-Sar]^3 cyclosporin A], the solubility at 18 h in data set [1] was more than 100 µM. In addition, in data set [2], the IC50 was 4750 nM. In addition, the Ki in data set [3] stood at 5.1 nM.

The solubility is the dissolved amount per volume that the medium holds. A high value points to much dissolved substance. What is called IC50 is the concentration that gives 50% inhibition. As a reminder, the Ki is a measure of affinity in units of concentration, obtained from inhibition or displacement.
